Key:
[1] = logp (HCOOH), physicochemical characterization; settings: for chromatographic logP: HCOOH (formic acid)
Amaranthus retroflexus [2] = experiment: Pre-emergence herbicidal effect; type: in vivo; settings: 1280 g/ha, visual assessment after 3 weeks
Excerpt: (§1) 1. Pre-Emergence Herbicidal Effect and Crop Plant Compatibility Seeds of monocotyledonous and dicotyledonous weed plants and crop plants are placed in wood-fiber pots in sandy loam and covered with soil. The inventive compounds, formulated in the form of wettable powders (WP) or as emulsion concentrates (EC), are then applied to the surface of the covering soil as an aqueous suspension or emulsion at a water application rate of 600 to 800 I/ha (converted) with addition of 0.2% wetting agent. After the treatment, the pots are placed in a greenhouse and kept under good growth conditions for the test plants. The damage to the test plants is assessed visually after a test period of 3 weeks by comparison with untreated controls (herbicidal activity in percent (%): 100% action=the plants have died, 0% action=like control plants). AMARE: Amaranthus retroflexus ECHCG: Echinochloa crus-galli

Veronica persica [3] = experiment: Pre-emergence herbicidal effect; type: in vivo; settings: 1280 g/ha, visual assessment after 3 weeks
Excerpt: as §1, with “STEME: Stellaria media VERPE: Veronica persica” for “AMARE: Amaranthus retroflexus ECHCG: Echinochloa crus-galli”

Stellaria media = experiment: Pre-emergence herbicidal effect; type: in vivo; settings: 1280 g/ha, visual assessment after 3 weeks
Excerpt: as §1, with “STEME: Stellaria media VERPE: Veronica persica” for “AMARE: Amaranthus retroflexus ECHCG: Echinochloa crus-galli”

Polygonum convolvulus [4] = experiment: Pre-emergence herbicidal effect; type: in vivo; settings: 1280 g/ha, visual assessment after 3 weeks
Excerpt: as §1, with “POLCO: Polygonum convolvulus SETVI: Setaria viridis” for “AMARE: Amaranthus retroflexus ECHCG: Echinochloa crus-galli”

Matricaria inodora = experiment: Pre-emergence herbicidal effect; type: in vivo; settings: 1280 g/ha, visual assessment after 3 weeks
Excerpt: as §1, with “LOLMU: Lolium multiflorum MATIN: Matricaria inodora” for “AMARE: Amaranthus retroflexus ECHCG: Echinochloa crus-galli”

Viola tricolor = experiment: Pre-emergence herbicidal effect; type: in vivo; settings: 1280 g/ha, visual assessment after 3 weeks
Excerpt: as §1, with “VIOTR: Viola tricolor” for “AMARE: Amaranthus retroflexus ECHCG: Echinochloa crus-galli”

Echinochloa crus-galli = experiment: Pre-emergence herbicidal effect; type: in vivo; settings: 1280 g/ha, visual assessment after 3 weeks
Excerpt: as §1

Amaranthus retroflexus [5] = experiment: Post-emergence herbicidal effect; type: in vivo; settings: 1280 g/ha, visual rating after about 3 weeks
Protocol: (§2) AMARE: Amaranthus retroflexus ECHCG: Echinochloa crus-galli 2. Post-Emergence Herbicidal Effect and Crop Plant Compatibility Seeds of monocotyledonous and dicotyledonous weed and crop plants are placed in sandy loam in wood-fiber pots, covered with soil and cultivated in a greenhouse under good growth conditions. 2 to 3 weeks after sowing, the test plants are treated at the one-leaf stage. The compounds according to the invention, formulated in the form of wettable powders (WP) or as emulsion concentrates (EC), are then sprayed as aqueous suspension or emulsion at a water application rate of 600 to 800 I/ha (converted) with the addition of 0.2% of wetting agent onto the green parts of the plants. After the test plants have been kept in the greenhouse under optimum growth conditions for about 3 weeks, the activity of the preparations is rated visually in comparison to untreated controls (herbicidal activity in percent (%): 100% activity=the plants have died, 0% activity=like control plants).

Setaria viridis = experiment: Pre-emergence herbicidal effect; type: in vivo; settings: 1280 g/ha, visual assessment after 3 weeks
Excerpt: as §1, with “POLCO: Polygonum convolvulus SETVI: Setaria viridis” for “AMARE: Amaranthus retroflexus ECHCG: Echinochloa crus-galli”

Abutilon theophrasti = experiment: Post-emergence herbicidal effect; type: in vivo; settings: 1280 g/ha, visual rating after about 3 weeks
Protocol: as §2, with “ABUTH: Abutilon theophrasti ALOMY: Alopecurus myosuroides” for “AMARE: Amaranthus retroflexus ECHCG: Echinochloa crus-galli”

Lolium multiflorum = experiment: Pre-emergence herbicidal effect; type: in vivo; settings: 1280 g/ha, visual assessment after 3 weeks
Excerpt: as §1, with “LOLMU: Lolium multiflorum MATIN: Matricaria inodora” for “AMARE: Amaranthus retroflexus ECHCG: Echinochloa crus-galli”

Alopecurus myosuroides = experiment: Pre-emergence herbicidal effect; type: in vivo; settings: 1280 g/ha, visual assessment after 3 weeks
Excerpt: as §1, with “ABUTH: Abutilon theophrasti ALOMY: Alopecurus myosuroides” for “AMARE: Amaranthus retroflexus ECHCG: Echinochloa crus-galli”

Polygonum convolvulus [6] = experiment: Post-emergence herbicidal effect; type: in vivo; settings: 1280 g/ha, visual rating after about 3 weeks
Protocol: as §2, with “POLCO: Polygonum convolvulus SETVI: Setaria viridis” for “AMARE: Amaranthus retroflexus ECHCG: Echinochloa crus-galli”

Veronica persica [7] = experiment: Post-emergence herbicidal effect; type: in vivo; settings: 1280 g/ha, visual rating after about 3 weeks
Protocol: as §2, with “STEME: Stellaria media VERPE: Veronica persica” for “AMARE: Amaranthus retroflexus ECHCG: Echinochloa crus-galli”

Question: For `Cc1cc(C)c2c(c1)C(Nc1cnc(S(C)(=O)=O)nc1)CCO2` (racemic) [compound 62], which “logp (HCOOH)” value [1] is on record?
Answer: wax-like; logp (HCOOH): 4.06; 1H-NMR (CDCl3, 400 MHZ, δ in ppm): 2.10-2.35 (m,

Question: Which “logp (HCOOH)” value [1] does the source give for `CCc1ccc2c(c1)C(Nc1cnc(S(C)(=O)=O)nc1C#N)CCO2` (racemic) [compound 66] here?
Answer: wax-like; logp (HCOOH): 2.54; 1H-NMR (CDCl3, 400 MHZ, δ in ppm): 1.15 (t, 3H,

Question: What about the “herbicidal activity AMARE” value (Amaranthus retroflexus [2]) of the same compound?
Answer: 100%

Question: And the “herbicidal activity VERPE” value (Veronica persica [3])?
Answer: 100%

Question: What about the “herbicidal activity STEME” value (Stellaria media) of the same compound?
Answer: 100%

Question: What about the “herbicidal activity POLCO” value (Polygonum convolvulus [4]) of the same compound?
Answer: 90%

Question: What about the “herbicidal activity MATIN” value (Matricaria inodora) of the same compound?
Answer: 90%

Question: What about the “herbicidal activity VIOTR” value (Viola tricolor) of the same compound?
Answer: 100%

Question: Which “logp (HCOOH)” value [1] does the source give for `CCc1ccc2c(c1)C(Nc1cnc(C(F)(F)F)nc1)CCO2` (racemic) [compound 70] here?
Answer: wax-like; logp (HCOOH): 3.41; 1H-NMR (CDCl3, 400 MHZ, δ in ppm): 1.15 (t, 3H,

Question: For `CCc1ccc2c(c1)C(Nc1cnc(C#N)nc1)CCO2` (centres unmarked) [Ex. 64, 5-[(6-Ethyl-3,4-dihydro-2H-chromen-4-yl)amino]pyrimidine-2-carbonitrile], which chromatographic logP [1] is on record?
Answer: 2.8

Question: With `FC(F)(F)c1ncc(N[C@@H]2CCc3ccccc32)cn1` [Ex. 115, N-[(1R)-2,3-Dihydro-1H-inden-1-yl]-2-(trifluoromethyl)pyrimidine-5-amine] as the compound, how does the chromatographic logP [1] read?
Answer: 3.05

Question: What about the melting point of the same compound?
Answer: 123.7 °C

Question: Which “logp (HCOOH)” value [1] does the source give for `Cc1ccc2c(c1)[C@H](Nc1cnc(C#N)nc1)[C@@H](C)C2` [compound 76] here?
Answer: wax-like; logp (HCOOH): 3.17; 1H-NMR (CDCl3, 400 MHZ, δ in ppm): 1.25 (d, 3H,

Question: Which “logp (HCOOH)” value [1] does the source give for `CS(=O)(=O)c1ncc(N[C@@H]2CCCc3ccccc32)c(C(N)=O)n1` [compound 87] here?
Answer: wax-like; logp (HCOOH): 1.86; 1H-NMR (CDCl3, 400 MHZ, δ in ppm): 1.85 (m, 2H, 2H

Question: For `Cc1ccc2c(c1)[C@H](Nc1cnc(S(C)(=O)=O)nc1C(N)=O)[C@@H](C)C2` [compound 93, 5-{[(1R,2S)-2,6-Dimethyl-2,3-dihydro-1H-inden-1-yl]amino}-2-(methylsulfonyl)pyrimidine-4-carboxamide], which chromatographic logP [1] is on record?
Answer: 2.21

Question: What about the “herbicidal activity AMARE” value (Amaranthus retroflexus [2]) of the same compound?
Answer: 100%

Question: And the “herbicidal activity ECHCG” value (Echinochloa crus-galli)?
Answer: 100%

Question: And the “herbicidal activity VERPE” value (Veronica persica [3])?
Answer: 100%

Question: And the “herbicidal activity STEME” value (Stellaria media)?
Answer: 100%

Question: What about the “herbicidal activity AMARE” value (Amaranthus retroflexus [5]) of the same compound?
Answer: 80%

Question: And the “herbicidal activity POLCO” value (Polygonum convolvulus [4])?
Answer: 100%

Question: What about the “herbicidal activity SETVI” value (Setaria viridis) of the same compound?
Answer: 90%

Question: And the “herbicidal activity ABUTH” value (Abutilon theophrasti)?
Answer: 80%

Question: And the “herbicidal activity LOLMU” value (Lolium multiflorum)?
Answer: 90%

Question: And the “herbicidal activity MATIN” value (Matricaria inodora)?
Answer: 100%

Question: What about the “herbicidal activity VIOTR” value (Viola tricolor) of the same compound?
Answer: 100%

Question: What about the “herbicidal activity ALOMY” value (Alopecurus myosuroides) of the same compound?
Answer: 90%

Question: Which “logp (HCOOH)” value [1] does the source give for `Cc1ccc2c(c1)[C@H](Nc1cnc(S(C)(=O)=O)nc1C#N)[C@@H](C)C2` [compound 108] here?
Answer: solid; logp (HCOOH): 3.29; 1H-NMR (CDCl3, 400 MHZ, δ in ppm): 1.25 (d, 3H, CH3);

Question: What does the source list for `CS(=O)(=O)c1ncc(N[C@@H]2CCc3ccccc32)cn1` [compound 131]?
Answer: herbicidal activity ECHCG (Echinochloa crus-galli): 100%; herbicidal activity VERPE (Veronica persica [3]): 100%; herbicidal activity STEME (Stellaria media): 100%; herbicidal activity POLCO (Polygonum convolvulus [6]): 80%; herbicidal activity AMARE (Amaranthus retroflexus [5]): 80%; herbicidal activity VERPE (Veronica persica [7]): 80%; herbicidal activity POLCO (Polygonum convolvulus [4]): 100%; herbicidal activity SETVI (Setaria viridis): 90%; herbicidal activity MATIN (Matricaria inodora): 100%

Question: What does the source list for `Cc1ccc2c(c1)[C@H](Nc1cnc(S(C)(=O)=O)nc1C(=O)NC1CC1)[C@@H](C)C2` [compound 139]?
Answer: herbicidal activity AMARE (Amaranthus retroflexus [2]): 100%; herbicidal activity VERPE (Veronica persica [3]): 100%; herbicidal activity STEME (Stellaria media): 100%; herbicidal activity LOLMU (Lolium multiflorum): 100%; herbicidal activity MATIN (Matricaria inodora): 100%; herbicidal activity VIOTR (Viola tricolor): 100%; herbicidal activity ALOMY (Alopecurus myosuroides): 90%

Source: US9375002B2, “5-aminopyrimidine derivatives and use thereof for combating undesired plant growth” (BAYER INTELLECTUAL PROPERTY GMBH, priority 2012, dated 2016)
